Patent publication US20240245705A1, “ORALLY ADMINISTERED COMBINATIONS OF AMOXICILLIN AND AVIBACTAM DERIVATIVES FOR TREATING MYCOBACTERIAL INFECTIONS” (Arixa Pharmaceuticals, Inc., priority 2019, published 2024)
Counter-ions that a name gives are not always drawn.

Tests used:
[1] = Single ascending dose phase 1 study: pharmacokinetics of avibactam after oral avibactam derivative (3) in healthy human volunteers; format: in vivo; conditions: following oral administration of avibactam derivative (3)
Method: The pharmacokinetics of avibactam provided as an orally administered avibactam derivative was determined on healthy human volunteers.
A randomized, double-blind, placebo-controlled single ascending dose phase 1 study was undertaken with healthy male and female adults. Three cohorts, each comprising 10 patients received a single oral dose of 300 mg, 900 mg, or 1,350 mg avibactam derivative (3) (ethyl 3-(((((1R,2S,5R)-2-carbamoyl-7-oxo-1,6-diazabicyclo[3.2.1]octan-6-yl)oxy)sulfonyl)oxy)-2,2-dimethylpropanoate) under fed conditions as a suspension of 10 mg/mL (n=8) or placebo (n−2).
Plasma and urine PK samples were collected prior to dosing and at frequent intervals after dosing.

[2] = Avibactam oral bioavailability in humans; format: in vivo; conditions: human patients, oral avibactam derivative
Source text: Avibactam derivatives, when orally administered, provide an enhanced oral bioavailability of the β-lactamase inhibitor compared to the oral bioavailability of the parent β-lactamase inhibitor. […] The oral bioavailability of avibactam in a human is about 7%.

[3] = human, avibactam itself given orally; cited from earlier work

Row | Compound | clearance of avibactam in the systemic compartment [1] | avibactam oral bioavailability [2] | oral bioavailability of avibactam [3]
1 | CCOC(=O)C(C)(C)COS(=O)(=O)ON1C(=O)N2C[C@H]1CC[C@H]2C(N)=O [avibactam derivative (3), ethyl 3-(((((1R,2S,5R)-2-carbamoyl-7-oxo-1,6-diazabicyclo[3.2.1]octan-6-yl)oxy)sulfonyl)oxy)-2,2-dimethylpropanoate] | rapid clearance | greater than 50 % F | –
2 | NC(=O)[C@@H]1CC[C@@H]2CN1C(=O)N2OS(=O)(=O)O [avibactam, [2S,5R]-2-carbamoyl-7-oxo-1,6-diazabicyclo[3.2.1]octan-6-yl hydrogen sulfate] | – | – | about 7%
